Assay results: US20230398194A1 (priority 2016, published 2023)

Experiments:
[1] = test system: porcine gut microbiome; experiment: Piglet gut microbiome study: fecal resistome by whole genome shotgun metagenomics, ceftriaxone with or without SYN-004 (ribaxamase); type: in vivo, pig; details: for blaOXA genes (extended spectrum OXA class D beta-lactamases), level in fecal microbiome / change in the mean of relative gene frequencies of acrE, baeR, emrY, mdtD, mdtN, pbp2, pbp4, AmpC (FIG. 3) / mdtD gene levels / AmpC gene frequencies / Aminoglycoside_strA gene level (FIG. 4A) / Tetracycline_tet39 gene level (FIG. 4B): CRO alone vs CRO+ribaxamase; for blaOXA genes (extended spectrum OXA class D beta-lactamases), level in fecal microbiome: 5 piglets per cohort; for AmpC gene frequencies: by Day 4, after an increase from Day −7 to Day −4 in both cohorts; for abundance of antibiotic resistance genes in the porcine gut microbiome (overall conclusion): ceftriaxone treatment alone vs with SYN-004 (ribaxamase); for Aminoglycoside_strA gene level (FIG. 4A) / Tetracycline_tet39 gene level (FIG. 4B): day 4 after antibiotic treatment, 5 animals per cohort
Protocol: See Table 2 and FIG. 1 for study design and timeline. Animals were acclimated for 14 days prior to study initiation. Ceftriaxone (CRO) was administered daily for 7 days and animals that received SYN-004 (ribaxamase) starting the day before antibiotic treatment for 9 consecutive days. Feces were collected on Study Days −7, −4, 4, and 8. Fecal DNA was isolated and subjected to whole genome shotgun metagenomics analyses. The community resistome, the collection of antibiotic resistance genes in the microbiome, was identified by comparison to a curated antibiotic resistance gene database.
Two groups of 5 normal piglets each were used in this study. Group 1 animals were treated with ceftriaxone (IV, 1× per day, 50 mg/kg) for 7 consecutive days and Group 2 animals received ceftriaxone (IV, 1× per day, 50 mg/kg) for 7 consecutive days and SYN-004 (ribaxamase, orally, 4× per day, 75 mg/dose) for 9 consecutive days starting the day before ceftriaxone delivery.
Normal piglets (2 months old, approximately 50 lbs) were acclimated for 14 days prior to study initiation. Two cohorts of 5 animals each were used for this study, Group 1 received ceftriaxone alone and Group 2 received ceftriaxone and SYN-004 (ribaxamase), as indicated in Table 2. Stool was collected at 4 time points, two prior to treatment, at Study Days −7 and −4, and two during treatment at Study Day 4 and 8.
Total DNA was isolated from fecal specimens, using the MOBIO Power-Soil® DNA Isolation Kit (Qiagen, Germantown, MD), following the manufacturer's instructions. Each DNA sample was normalized in 3-18 uL of nuclease-free water for a final concentration of 0.5 ng/uL using the Biomek FX liquid handler (Beckman Coulter Life Sciences, Brea, CA). Libraries were constructed using the Nextera XT Library Prep Kit (illumine, San Diego, CA). For each sample, an input of 0.5 ng was used in the tagmentation reaction, followed by 13 cycles of PCR amplification using Nextera i7 and i5 index primers and 2× KAPA master mix per the modified Nextera XT protocol. The PCR products were purified using 1.0× speed beads and eluted in 15 ul of nuclease-free water. The final libraries were quantified by PicoGreen fluorometric assay (100× final dilution) and the concentrations were in the range of 0.1-4.0 ng/ul. The libraries were pooled, based on concentration determined by PicoGreen and loaded onto a high sensitivity (HS) chip run on the Caliper LabChipGX (Perkin Elmer, Waltham, MA). The base pair size reported was in the range of 301-680 bp. Each pool of 64 was run across 8 lanes of an Illumina HiSeq v3 flowcell, targeting 100 bp paired end reads per sample.
Briefly, raw, unassembled shotgun sequence reads were probed against the CosmosID, Inc. curated antibiotic resistance gene database.

[2] = test system: fecal microbiomes; details: for effect on microbiota populations in the GI tract (conclusion): oral amoxicillin alone vs with SYN-004; for position of post treatment fecal microbiomes in Principal Coordinate Analysis (Bray-Curtis, FIG. 7): post treatment vs pretreatment cluster, amoxicillin alone vs amoxicillin+SYN-004, 5 dogs per cohort
Protocol: The ability of a delayed-release formulation of SYN-004 (ribaxamase), to mitigate the propagation of antibiotic resistance genes caused by exposure of the gut microbiota to oral amoxicillin was evaluated in normal, seven month old female beagles. Animals were acclimated for 24 days prior to dosing initiation. Animals (n=10, 5 animals per cohort) received oral amoxicillin (40 mg/kg/dose, reconstituted in apple juice) three times a day+/−one capsule of SYN-004 (10 mg) for 5 days, with the last dose on the morning of day 6. The animals received 16 total doses of amoxicillin+/−SYN-004. Fecal samples were collected prior to antibiotic dosing and after the last dose. Blood was collected after the first antibiotic dose on day 1 and after the last dose on day 6. On each blood collection day, blood was collected from each animal at seven time points, 0.5, 1, 2, 3, 4, 6, and 8 hrs. Amoxicillin serum levels were measured using a validated liquid chromatography (LC) method with tandem mass spectrometry detection (LC/MS/MS). DNA isolated from fecal samples was subjected to whole genome shotgun sequencing and metagenomics analyses.
DNA isolated from the fecal samples was subjected to whole genome sequencing and analyzed using the CosmosID, Inc. bioinformatics software package. Analyses included identification of the microbiota species present in the fecal microbiomes and identification of antibiotic-resistance genes based on the percentage gene coverage for each gene and quantified by determining the frequency (%) of each gene in each sample.
To determine if SYN-004 protected the fecal microbiomes from damage caused by oral amoxicillin, the microbiome bacterial populations were compared using a three coordinate Principal Coordinate Analysis (CosmosID, Inc. bioinformatics software). Distance between points indicates degree of difference in sample diversity with points close together more similar.

[3] = test system: canine gut microbiome; experiment: Canine fecal resistome analysis, oral amoxicillin with or without SYN-004; type: in vivo, dog; details: for abundance of antibiotic resistance genes in the canine gut microbiome (overall conclusion): oral amoxicillin exposure alone vs with SYN-004; for change in the mean of relative gene frequencies of selected resistance genes (FIG. 9): amoxicillin alone vs amoxicillin+SYN-004
Protocol: To determine if SYN-004 affected the abundance of antibiotic resistance genes, resistome analyses were performed.
Several genes were selected for further analysis. For each selected gene, the change in the mean of relative gene frequencies from pretreatment to post treatment was compared in the amoxicillin alone or the amoxicillin+SYN-004 cohorts (FIG. 9).

[4] = Amoxicillin serum levels (LC/MS/MS) in dogs given oral amoxicillin with or without SYN-004; type: in vivo, dog; details: for amoxicillin serum levels (area under the curve), amoxicillin alone vs amoxicillin+SYN-004: amoxicillin 40 mg/kg/dose oral TID +/- SYN-004 10 mg capsule
Protocol: Amoxicillin serum levels were plotted for each group for each blood collection day as mean+standard deviation for each time point. Area under the curve was calculated for each group for each bleed day (day 1 and day 6) and were compared statistically using one-way ANOVA with Dunnett's multiple comparison tests (Graph Pad Prism 7.03 software).

[5] = ertapenem 30 mg/kg IV once a day; P2A 50 mg PO 4 times a day; expected result
Protocol: Animals (n=16, 8 animals per cohort) receive ertapenem (30 mg/kg/dose, IV, once a day for 4 days)+/−one capsule of P2A (50 mg, PO, 4 times a day). The P2A is started the day before antibiotic treatment and continues with one final dose the morning of day 5. […] Blood is collected on day 3 after 3 ertapenem doses. Blood is collected at 3 timepoints, 1 hr, 2 hrs, and 3 hrs after ertapenem.

Molecule: CO/N=C(\C(=O)N[C@@H]1C(=O)N2C(C(=O)O)=C(CSc3nc(=O)c(=O)[nH]n3C)CS[C@H]12)c1csc(N)n1 [Ceftriaxone, reference compound]
- blaCTX-M_82 or blaCFX_A4 genes (class A serine beta-lactamases), level in fecal microbiome ([1]; Day 4, CRO alone): detected at Day 4 at high levels in two of the CRO animals
- blaOXA genes (extended spectrum OXA class D beta-lactamases), level in fecal microbiome ([1]; Day 4): present at high levels in two of five CRO animals
- change in the mean of relative gene frequencies of acrE, baeR, emrY, mdtD, mdtN, pbp2, pbp4, AmpC (FIG. 3) ([1]; Day −4 to Day 4): increased for each gene
- mdtD gene levels ([1]; Day −4 to Day 4): doubled
- AmpC gene frequencies [1]: continued to increase
- abundance of antibiotic resistance genes in the porcine gut microbiome (overall conclusion) [1]: increased the abundance of antibiotic resistance genes
- Aminoglycoside_strA gene level (FIG. 4A) [1]: detected at high levels in 4 of 5 animals
- Tetracycline_tet39 gene level (FIG. 4B) [1]: detected at high levels in 4 of 5 animals
- abundance of antibiotic resistance genes in the fecal microbiome (heatmaps, FIG. 2A, 2B) ([1]; post-treatment Day 4, CRO 50 mg/kg IV 1x per day alone vs CRO+ribaxamase 75 mg oral QID): higher abundance of antibiotic resistance genes

Molecule: CC1(C)S[C@@H]2[C@H](NC(=O)[C@H](N)c3ccc(O)cc3)C(=O)N2[C@H]1C(=O)O [amoxicillin]
- effect on microbiota populations in the GI tract (conclusion) [2]: disrupts the microbiota populations in the GI tract
- position of post treatment fecal microbiomes in Principal Coordinate Analysis (Bray-Curtis, FIG. 7) [2]: 4/5 post treatment samples were plotted far from the pretreatment cluster
- abundance of antibiotic resistance genes, pretreatment to post treatment ([3]; amoxicillin alone compared to amoxicillin+SYN-004 cohort): higher abundance of antibiotic resistance genes post treatment
- TEM and OXA beta-lactamase genes (e.g. TEM-113, OXA-136, FIG. 8), detection ([3]; not detected prior to amoxicillin exposure): detected only at day 6 in the amoxicillin alone cohort
- abundance of antibiotic resistance genes in the canine gut microbiome (overall conclusion) [3]: increased the abundance of antibiotic resistance genes
- marA gene levels ([3]; pretreatment to post treatment, amoxicillin alone): almost doubled
- change in the mean of relative gene frequencies of selected resistance genes (FIG. 9) ([3]; pretreatment to post treatment): increased for each gene

Molecule: SYN-004: beta-lactamase with the amino acid sequence of SEQ ID NO: 1; D276N mutant of P1A
- blaOXA genes (extended spectrum OXA class D beta-lactamases), level in fecal microbiome ([1]; Day 4): absent or observed at lower frequencies
- change in the mean of relative gene frequencies of acrE, baeR, emrY, mdtD, mdtN, pbp2, pbp4, AmpC (FIG. 3) ([1]; Day −4 to Day 4): decreased for each gene in the CRO+ribaxamase group except for pbp2
- mdtD gene levels ([1]; Day −4 to Day 4): reduced
- pbp2 relative gene frequency change ([1]; Day −4 to Day 4, CRO+ribaxamase): increased only slightly above baseline
- AmpC gene frequencies [1]: decreased to levels similar to the Day −7 frequencies
- abundance of antibiotic resistance genes in the porcine gut microbiome (overall conclusion) [1]: attenuated this enrichment process
- Aminoglycoside_strA gene level (FIG. 4A) [1]: remained low or absent in all animals
- Tetracycline_tet39 gene level (FIG. 4B) [1]: only one animal in the CRO+ribaxamase cohort was identified with a high level
- antibiotic resistance gene frequencies in the presence of ribaxamase ([1]; with ceftriaxone, vs pre-antibiotic treatment levels): reduced or maintained at pre-antibiotic treatment levels
- amoxicillin serum levels (area under the curve), amoxicillin alone vs amoxicillin+SYN-004 ([4]; day 1, p=0.703): not significantly different
- amoxicillin serum levels (area under the curve), amoxicillin alone vs amoxicillin+SYN-004 ([4]; day 6, p=0.098): not significantly different
- interference with amoxicillin systemic absorption from the gastrointestinal tract ([4]; delayed release SYN-004 formulation, dog): did not interfere
- effect on microbiota populations in the GI tract (conclusion) [2]: can mitigate the damage caused by oral amoxicillin
- position of post treatment fecal microbiomes in Principal Coordinate Analysis (Bray-Curtis, FIG. 7) [2]: also clustered with the pretreatment samples
- abundance of antibiotic resistance genes in the canine gut microbiome (overall conclusion) [3]: attenuated this enrichment process
- change in the mean of relative gene frequencies of selected resistance genes (FIG. 9) ([3]; pretreatment to post treatment): decreased for each gene
- marA gene levels, reduction ([3]; pretreatment to post treatment, amoxicillin+SYN-004 cohort): approximately 50%
- antibiotic resistance gene frequencies in the presence of SYN-004 ([3]; with oral amoxicillin): reduced

B1: P2A: carbapenemase, beta-lactamase polypeptide of SEQ ID NO: 6 (protein)
chain: ETGTISISQLNKNVWVHTELGYFNGEAVPSNGLVLNTSKGLVLVDSSWDNKLTKELIEMVEKKFQKRVTDVIITHAHADRIGGITALKERGIKAHSTALTAELAKNSGYEEPLGDLQTITSLKFGNTKVETFYPGKGHTEDNIVVWLPQYQILAGGCLVKSAEAKDLGNVADAYVNEWSTSIENVLKRYGNINSVVPGHGEVGDKGLLLHTLDLLK
- ertapenem serum levels, ertapenem alone vs ertapenem+P2A [5]: not expected to be different
